These results are taken from US7745441B1, “Urokinase inhibitors” (Wilex AG, priority 1998, dated 2010).

For the assay, the target named is T1, sc-urokinase (Homo sapiens, UniProt P00749).
T1 construct: purchased Ribosepharm GmbH, Haan, Germany
Nature of the assay: Inhibition of urokinase (chromogenic substrate, Dixon Ki). It counts as biochemical. As to conditions: Tris buffer pH 8.0, 25° C., substrate Pefachrome UK or Bz-βAla-Gly-Arg-pNA; mean of at least 3 determinations. As to the method: The Ki values were determined according to Dixon by linear regression using a computer program.

The structures appear in SMILES notation. Where a name gives a salt, the structure may show the parent alone.

In the case of `CCOC(=O)N1CCN(C(=O)C(Cc2cccc(C(=N)N)c2)NS(=O)(=O)c2c(C(C)C)cc(C(C)C)cc2C(C)C)CC1` (centres unmarked), the Ki was found to be 540 nM. In other words, the sub-micromolar range.
The same measure for `CCOC(=O)C1CCN(C(=O)C(Cc2cccc(C(=N)N)c2)NS(=O)(=O)c2c(C(C)C)cc(C(C)C)cc2C(C)C)CC1` (centres unmarked): 720 nM; for `CC(C)OC(=O)N1CCN(C(=O)C(Cc2cccc(C(=N)N)c2)NS(=O)(=O)c2c(C(C)C)cc(C(C)C)cc2C(C)C)CC1` (centres unmarked): 790 nM; for `CC(C)c1cc(C(C)C)c(S(=O)(=O)NC(Cc2cccc(C(=N)N)c2)C(=O)N2CCCC(C(=O)OCc3ccccc3)C2)c(C(C)C)c1` (centres unmarked): 1200 nM.
Regarding `CC(C)c1cc(C(C)C)c(S(=O)(=O)NC(Cc2cccc(C(=N)N)c2)C(=O)N2CCCC(C(=O)NCc3ccccc3)C2)c(C(C)C)c1` (centres unmarked), the Ki came out at 1500 nM.
Take `CC(C)c1cc(C(C)C)c(S(=O)(=O)NC(Cc2cccc(C(=N)N)c2)C(=O)N2CCN(C(=O)OCc3ccccc3)CC2)c(C(C)C)c1` (centres unmarked): the inhibition constant (Ki) stood at 1900 nM.
Consider `CC1CCN(C(=O)C(Cc2cccc(C(=N)N)c2)NS(=O)(=O)c2c(C(C)C)cc(C(C)C)cc2C(C)C)CC1` (centres unmarked), for which the inhibition constant (Ki) came out at 2200 nM.
Turning to `CC(C)c1cc(C(C)C)c(S(=O)(=O)NC(Cc2cccc(C(=N)N)c2)C(=O)N2CCN(C(=O)N(C)C)CC2)c(C(C)C)c1` (centres unmarked), the Ki worked out at 2700 nM.
For the compound `CCOC(=O)C1CCN(C(=O)[C@H](Cc2cccc(C(=N)N)c2)NS(=O)(=O)c2ccc3ccccc3c2)CC1`, the Ki is 3300 nM.
In the case of `CC(=O)N1CCN(C(=O)C(Cc2cccc(C(=N)N)c2)NS(=O)(=O)c2c(C(C)C)cc(C(C)C)cc2C(C)C)CC1` (centres unmarked), the inhibitory constant (Ki) was found to be 3500 nM.
In turn, `N=C(N)c1cccc(C[C@H](NS(=O)(=O)c2ccc3ccccc3c2)C(=O)N2CCC(C(=O)OCc3ccccc3)CC2)c1` registered an inhibition constant (Ki) of 3900 nM.
Regarding `CC(C)NC(=O)C1CCN(C(=O)C(Cc2cccc(C(=N)N)c2)NS(=O)(=O)c2c(C(C)C)cc(C(C)C)cc2C(C)C)CC1` (centres unmarked), the affinity corresponds to a Ki of 4200 nM.
For `CNC(=O)C1CCN(C(=O)C(Cc2cccc(C(=N)N)c2)NS(=O)(=O)c2c(C(C)C)cc(C(C)C)cc2C(C)C)CC1` (centres unmarked), the Ki worked out at 4400 nM.
With `CCOC(=O)N1CCN(C(=O)[C@H](Cc2cccc(C(=N)N)c2)NS(=O)(=O)c2c(C(C)C)cc(C(C)C)cc2C(C)C)CC1` [N-α-2,4,6-Triisopropylphenylsulfonyl-(L)-3-amidinophenylalanine-4-ethoxycarbonyl-piperazide hydrochloride], the inhibition constant Ki was 490 nM.
